The NIST ThermoML archive (doi:10.1016/j.fluid.2010.09.023)
± gives the expanded uncertainty stated by the source. Blank lines part the entries; values can stand above or below the compound they belong to.

Settings: Liquid
[1] = 312.59 K, Closed cell (Static) method

SMILES: C=CCC [1-butene]
vapor or sublimation pressure [1]: 448.3 ± 3.2 kPa

SMILES: CCCC [butane]
vapor or sublimation pressure (322.01 K, Closed cell (Static) method): 479.5 ± 3.2 kPa

SMILES: CCC#N [propanenitrile]
vapor or sublimation pressure (307.78 K, Closed cell (Static) method): 9.47 ± 2.8 kPa
vapor or sublimation pressure (312.5 K, Closed cell (Static) method): 11.9 ± 2.8 kPa
vapor or sublimation pressure (312.58 K, Closed cell (Static) method): 11.9 ± 2.8 kPa
vapor or sublimation pressure (313.15 K, Closed cell (Static) method): 12.5 ± 2.8 kPa
vapor or sublimation pressure (313.15 K, Ebulliometric method (Recirculating still)): 12.72 ± 0.29 kPa
vapor or sublimation pressure (322 K, Closed cell (Static) method): 17.4 ± 2.8 kPa
vapor or sublimation pressure (339.57 K, Ebulliometric method (Recirculating still)): 36.51 ± 0.3 kPa
vapor or sublimation pressure (353.83 K, Ebulliometric method (Recirculating still)): 60.04 ± 0.33 kPa
vapor or sublimation pressure (358.33 K, Closed cell (Static) method): 69.6 ± 2.8 kPa
vapor or sublimation pressure (358.37 K, Ebulliometric method (Recirculating still)): 69.81 ± 0.36 kPa
vapor or sublimation pressure (364.8 K, Ebulliometric method (Recirculating still)): 85.5 ± 0.39 kPa
vapor or sublimation pressure (370.9 K, Ebulliometric method (Recirculating still)): 103.12 ± 0.4 kPa

Continued, values first:

vapor or sublimation pressure (312.83 K, Ebulliometric method (Recirculating still)): 30.95 ± 0.33 kPa
vapor or sublimation pressure (312.84 K, Closed cell (Static) method): 31.9 ± 2.8 kPa
vapor or sublimation pressure (330.44 K, Ebulliometric method (Recirculating still)): 60.25 ± 0.34 kPa
vapor or sublimation pressure (338.77 K, Ebulliometric method (Recirculating still)): 80.14 ± 0.38 kPa
vapor or sublimation pressure (343.01 K, Ebulliometric method (Recirculating still)): 92 ± 0.42 kPa
vapor or sublimation pressure (346.26 K, Ebulliometric method (Recirculating still)): 102.08 ± 0.43 kPa
vapor or sublimation pressure (358.31 K, Closed cell (Static) method): 147.9 ± 2.8 kPa
SMILES: CCOC(C)(C)C [2-ethoxy-2-methylpropane]

vapor or sublimation pressure (307.79 K, Closed cell (Static) method): 460.8 ± 3.2 kPa
SMILES: CC(C)C [2-methylpropane]

vapor or sublimation pressure [1]: 467.1 ± 3.2 kPa
SMILES: C=C(C)C [2-methylpropene]
